Data taken from PubChem BioAssay AID1919003 (Molecular Pharmacology Branch, DTP, NCI, 2023).

System: 786-0 complex spheroids with HUVEC/MSC, growth % test/control
Assay: Anticancer human tumor 786-0 cell line growth inhibition [AhR];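 further: compound exposure lasted seven days before the read-out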
Settings: for IC50: curve of first compound; for viability, T/C: stronger effect = lower value
Outline: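 Complex tumor spheroids co-cultured with HUVEC and human MSC stroma; AhR antagonists tested in combination with standard-of-care and investigational agents. Top concentration at or near clinical Cmax (else 10 microM), half-log dilutions; growth expressed as percent test/control.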

[1] = second compound 0.1 µM, first compound 0.00949 µM
[2] = second compound 0.1 µM, first compound 0.03 µM
[3] = second compound 0.1 µM, first compound 0.0949 µM
[4] = second compound 0.1 µM, first compound 0.3 µM
[5] = second compound 0.1 µM, first compound 0.949 µM
[6] = second compound 0.1 µM, first compound 3 µM
[7] = second compound 0.316 µM, first compound 0.00949 µM
[8] = second compound 0.316 µM, first compound 0.03 µM
[9] = second compound 0.316 µM, first compound 0.0949 µM
[10] = second compound 0.316 µM, first compound 0.3 µM
[11] = second compound 0.316 µM, first compound 0.949 µM
[12] = second compound 0.316 µM, first compound 3 µM
[13] = second compound 1 µM, first compound 0.00949 µM
[14] = second compound 1 µM, first compound 0.03 µM
[15] = second compound 1 µM, first compound 0.0949 µM
[16] = second compound 1 µM, first compound 0.3 µM
[17] = second compound 1 µM, first compound 0.949 µM
[18] = second compound 1 µM, first compound 3 µM
[19] = second compound 3.16 µM, first compound 0.00949 µM
[20] = second compound 3.16 µM, first compound 0.03 µM
[21] = second compound 3.16 µM, first compound 0.0949 µM
[22] = second compound 3.16 µM, first compound 0.3 µM
[23] = second compound 3.16 µM, first compound 0.949 µM
[24] = second compound 3.16 µM, first compound 3 µM
[25] = second compound 10 µM, first compound 0.00949 µM
[26] = second compound 10 µM, first compound 0.03 µM
[27] = second compound 10 µM, first compound 0.0949 µM
[28] = second compound 10 µM, first compound 0.3 µM
[29] = second compound 10 µM, first compound 0.949 µM
[30] = second compound 10 µM, first compound 3 µM

Row | SMILES | IC50 (second compound 0.1 µM) | IC50 (second compound 0.316 µM) | IC50 (second compound 1 µM) | IC50 (second compound 3.16 µM) | IC50 (second compound 10 µM) | viability, T/C [1] | viability, T/C [2] | viability, T/C [3] | viability, T/C [4] | viability, T/C [7] | viability, T/C [8] | viability, T/C [9] | viability, T/C [10] | viability, T/C [13] | viability, T/C [14] | viability, T/C [15] | viability, T/C [16] | viability, T/C [19] | viability, T/C [20] | viability, T/C [21] | other results
1 | CCN(c1cc(-c2ccc(CN3CCOCC3)cc2)cc(C(=O)NCc2c(C)cc(C)[nH]c2=O)c1C)C1CCOCC1 + CC(CO)NC(=O)c1cc(-c2ccc(Cl)cc2)nn(-c2cnn(C)c2)c1=O | > 3000 nM | > 3000 nM | > 3000 nM | > 3000 nM | > 3000 nM | 90.2% | 101% | 93.5% | 106% | 108% | 107% | 103% | 101% | 98.8% | 102% | 101% | 109% | 101% | 97.5% | 106% | viability, T/C [5]: 98.7%; viability, T/C [6]: 102%; viability, T/C [11]: 103%; viability, T/C [12]: 98.4%; viability, T/C [17]: 110%; viability, T/C [18]: 96.6%; viability, T/C [22]: 102%; viability, T/C [23]: 112%; viability, T/C [24]: 98.5%; viability, T/C [25]: 105%; viability, T/C [26]: 110%; viability, T/C [27]: 102%; viability, T/C [28]: 116%; viability, T/C [29]: 116%; viability, T/C [30]: 106%
2 | Nc1ncn(C2CC(O)C(CO)S2)c(=O)n1 (stereo not given) + CC(CO)NC(=O)c1cc(-c2ccc(Cl)cc2)nn(-c2cnn(C)c2)c1=O | > 300 nM | > 300 nM | > 300 nM | > 300 nM | > 300 nM | 99.8% | 102% | 92.3% | 67.2% | 109% | 107% | 94.8% | 64.7% | 111% | 102% | 97.9% | 63.1% | 115% | 108% | 92.6% | viability, T/C (second compound 0.1 µM, first compound 0.000949 µM): 102%; viability, T/C (second compound 0.1 µM, first compound 0.003 µM): 97.3%; viability, T/C (second compound 0.316 µM, first compound 0.000949 µM): 101%; viability, T/C (second compound 0.316 µM, first compound 0.003 µM): 109%; viability, T/C (second compound 1 µM, first compound 0.000949 µM): 104%; viability, T/C (second compound 1 µM, first compound 0.003 µM): 115%; viability, T/C (second compound 3.16 µM, first compound 0.000949 µM): 122%; viability, T/C (second compound 3.16 µM, first compound 0.003 µM): 108%; viability, T/C [22]: 66.4%; viability, T/C (second compound 10 µM, first compound 0.000949 µM): 118%; viability, T/C (second compound 10 µM, first compound 0.003 µM): 116%; viability, T/C [25]: 117%; viability, T/C [26]: 123%; viability, T/C [27]: 119%; viability, T/C [28]: 68.1%
3 | O=C(C=Cn1cnc(-c2cc(C(F)(F)F)cc(C(F)(F)F)c2)n1)NNc1cnccn1 + CC(CO)NC(=O)c1cc(-c2ccc(Cl)cc2)nn(-c2cnn(C)c2)c1=O | 278 nM | 251 nM | 242 nM | 246 nM | 278 nM | 108% | 110% | 107% | 45.5% | 111% | 113% | 112% | 38.7% | 105% | 115% | 113% | 36% | 110% | 116% | 106% | viability, T/C [5]: 25.7%; viability, T/C [6]: 10.5%; viability, T/C [11]: 28.2%; viability, T/C [12]: 11%; viability, T/C [17]: 24.5%; viability, T/C [18]: 9.93%; viability, T/C [22]: 37.9%; viability, T/C [23]: 22.9%; viability, T/C [24]: 9.29%; viability, T/C [25]: 119%; viability, T/C [26]: 122%; viability, T/C [27]: 107%; viability, T/C [28]: 44.8%; viability, T/C [29]: 23.6%; viability, T/C [30]: 10.6%
